In ChEMBL document CHEMBL5726856, “ULK1 inhibitors and methods using same” (2019) one finds IC50 data, which are given here for 47 compounds.

One may read the IC50 as the concentration that inhibits the measured activity by half.

Each structure is given as a SMILES string.

This assay has as its target T1, Serine/threonine-protein kinase ULK1 (Homo sapiens, UniProt O75385).
T1 sequence (O75385 whole entry): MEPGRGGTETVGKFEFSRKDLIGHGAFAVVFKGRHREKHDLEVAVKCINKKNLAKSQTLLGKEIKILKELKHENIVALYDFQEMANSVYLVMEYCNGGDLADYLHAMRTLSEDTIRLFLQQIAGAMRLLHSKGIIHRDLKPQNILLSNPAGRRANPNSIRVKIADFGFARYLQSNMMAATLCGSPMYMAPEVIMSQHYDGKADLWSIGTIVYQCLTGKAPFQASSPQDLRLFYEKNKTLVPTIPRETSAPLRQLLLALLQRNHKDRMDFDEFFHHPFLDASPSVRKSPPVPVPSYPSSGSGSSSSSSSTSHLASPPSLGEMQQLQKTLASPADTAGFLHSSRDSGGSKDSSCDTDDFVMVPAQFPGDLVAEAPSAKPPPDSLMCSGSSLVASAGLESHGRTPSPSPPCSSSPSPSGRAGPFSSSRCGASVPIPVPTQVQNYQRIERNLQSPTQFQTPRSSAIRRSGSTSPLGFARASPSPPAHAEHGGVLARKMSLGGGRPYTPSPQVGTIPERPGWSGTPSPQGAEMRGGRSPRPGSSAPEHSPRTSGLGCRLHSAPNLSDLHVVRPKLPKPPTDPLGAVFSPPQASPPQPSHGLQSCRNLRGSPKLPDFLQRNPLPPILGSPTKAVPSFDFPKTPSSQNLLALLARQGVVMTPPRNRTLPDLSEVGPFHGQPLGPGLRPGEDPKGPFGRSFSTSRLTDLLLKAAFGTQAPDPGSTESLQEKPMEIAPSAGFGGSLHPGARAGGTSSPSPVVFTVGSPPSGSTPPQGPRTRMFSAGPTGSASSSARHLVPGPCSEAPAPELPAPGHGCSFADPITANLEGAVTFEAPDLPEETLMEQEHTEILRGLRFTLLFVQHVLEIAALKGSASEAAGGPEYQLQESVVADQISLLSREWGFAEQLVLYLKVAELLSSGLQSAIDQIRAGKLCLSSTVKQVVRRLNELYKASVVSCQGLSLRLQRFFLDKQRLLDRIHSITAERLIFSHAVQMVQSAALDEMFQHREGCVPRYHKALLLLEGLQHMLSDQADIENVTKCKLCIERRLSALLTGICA
Briefly: ULK1 inhibition assay: Gamma-32P assays to measure ULK1 kinase activity were performed as previously described. Briefly, Flag ULK1 was transfected into HEK293T cells and 20 hours later treated as indicated. The immmunoprecipitate was washed in IP buffer 3 times, and washed in kinase buffer (25 mM MOPS, pH 7.5, 1 mM EGTA, 0.1 mM Na3VO4, 15 mM MgCl2,). Hot and cold ATP were added at a 100 μM final concentration. As substrates, GST or the recombinant protein GST-Atg101 purified from E. coli were used at 1 μg for each reaction. Reactions were boiled, run out on SDS page gel. The gel was dried, and imaged using PhosphoImager software. For cold assays to asses ULK1, Flag ULK1 which was transiently overexpressed and immunoprecipited from HEK293T cells. Reactions were then run out on SDS page gel, transferred to PVDF membrane and blotted for total levelsFluorescence MicroscopyVps34flox/flox MEFs were reconstituted with Flag-VPS34 and either p40FX or GFP-DFCP1. 48 hours post infection with adenovirus expressing Cre recombinase (MOI of 100), cells were plated on glass coverslips at a density of 3×10^5 cells per well in 6-well tissue culture plates. 18 h later, cells were fixed in 4% PFA in PBS for 10 minutes and permeabilized in 0.2% Triton in PBS for 10 minutes. The following primary antibodies were used: mouse anti-Myc epitope and LC3B XP antibody (2276 and 3868 respectively, Cell Signaling Technologies). Secondary antibodies were anti-rabbit Alexa488 and anti-mouse Alexa594 (Molecular Probes, 1:1000. Cells were then fixed and counter stained with DAPI. Coverslips were mounted in FluoromountG (SouthernBiothech). Images were acquired on a Zeiss Axioplan2 epifluorescence microscope coupled to the Openlab software. Confocal images of mitotracker were taken on Zeiss LSM 710 laser scanning confocal microscope. 10 random fields per condition were acquired using the 100× objective and representative images shown. Glass coverslips were mounted directly on plate with FluoromountG and images taken on Zeiss Axioplan2 epifluorescence microscope.
As to `COc1cc(Nc2nc(Oc3cccc4c3CCCC4)ncc2Br)cc(O)c1OC`, the 50% inhibitory concentration (IC50) is above 2 µM. With `COc1cc(Nc2ncc(Br)c(Oc3cccc4[nH]nnc34)n2)cc(OC)c1OC` the figure was above 2 µM; with `COc1cc(Nc2ncc(Br)c(Oc3ccccc3NS(C)(=O)=O)n2)cc(OC)c1OC`, above 2 µM.

As to `FC(F)(F)c1cnc(Nc2cccc(Oc3ccccc3)c2)nc1Nc1ccc2c(c1)OCO2`, the IC50 was above 2 µM. With `O=C1CCc2cc(Nc3ncc(C(F)(F)F)c(Nc4ccccc4CO)n3)ccc2N1` the figure was below 0.2 µM; with `NC(=O)c1cccc(Nc2ncc(C(F)(F)F)c(Nc3ccc4c(c3)OCO4)n2)c1`, below 0.2 µM; with `FC(F)(F)c1cnc(Nc2ccc3c(c2)CCC3)nc1Nc1ccc2c(c1)OCO2`, below 0.2 µM.

`FC(F)(F)c1cnc(Nc2cccc(Cl)c2Cl)nc1Nc1ccc2c(c1)OCO2`: the IC50 is above 2 µM. With `COc1cc(Nc2ncc(Br)c(Oc3ccccc3NC(=O)C(F)(F)F)n2)cc(OC)c1OC` the figure was below 0.2 µM; with `COc1cc(Nc2ncc(Br)c(Oc3cccc4c3CCCC4)n2)cc(OC)c1OC`, above 2 µM.

Turning to `COc1cc(Nc2ncc(Br)c(Oc3cccc4cc[nH]c34)n2)cc(OC)c1OC`, the half-maximal inhibitory concentration (IC50) is above 2 µM.

Take `COc1cc(Nc2nc(Oc3cccc4cc[nH]c34)ncc2Br)cc(O)c1OC`: the IC50 is above 2 µM. With `CNC(=O)c1ccc(OC)cc1Oc1nc(Nc2cc(O)c(OC)c(OC)c2)ncc1Br` the figure was above 2 µM; with `CCN1CCOc2cc(Nc3nc(Nc4ccc5c(c4)CCC(=O)N5)ncc3Br)cnc21`, below 0.2 µM. With `COc1cc(Nc2ncc(Br)c(Oc3cccc4cccnc34)n2)cc(OC)c1OC` the figure was above 2 µM; with `Nc1ccccc1Oc1nc(Nc2ccc3c(c2)OCO3)ncc1Br`, below 0.2 µM. `COc1cc(Nc2ncc(Br)c(Oc3cccc4ccncc34)n2)cc(OC)c1OC`: the IC50 was above 2 µM. With `COc1cc(Nc2nc(Oc3cccc4c3N(C(C)=O)CCC4)ncc2Br)cc(O)c1OC`, the IC50 was below 0.2 µM. With `CNC(=O)c1ccc(OC)cc1Oc1ncc(Br)c(Nc2cc(OC)c(OC)c(OC)c2)n1` the figure was above 2 µM.

As for `CNC(=O)c1ccccc1COc1nc(Nc2cc(OC)c(OC)c(OC)c2)ncc1Br`, the IC50 is above 2 µM.

On to `Oc1nc(Nc2cnc3[nH]ccc3c2)ncc1C(F)(F)F`, for which the IC50 was above 2 µM. With `FC(F)(F)c1cnc(Nc2ccc(-n3cccc3)cc2)nc1Nc1ccc2c(c1)OCO2` the figure was below 0.2 µM. With `COc1ccc(Nc2ncc(C(F)(F)F)c(Nc3ccc4c(c3)OCO4)n2)cc1`, the IC50 is below 0.2 µM. With `COc1cc(Nc2ncc(Br)c(Oc3ccccc3CN(C)C)n2)cc(OC)c1OC` the figure was above 2 µM. Under `CCN1CCOc2cc(Nc3ncc(C(F)(F)F)c(NC4CC4)n3)cnc21` stands below 0.2 µM; under `COc1cc(Nc2ncc(Br)c(Oc3ccccc3C3=NC(C)(C)CO3)n2)cc(OC)c1OC`, above 2 µM; under `COc1cc(Nc2ncc(Br)c(Oc3cccc(O)c3[N+](=O)[O-])n2)cc(OC)c1OC`, above 2 µM.

On to `CNC(=O)c1ccccc1Oc1nc(Nc2ccc3c(c2)CCC(=O)N3)ncc1Br`, for which the IC50 was above 2 µM. With `CC(=O)NNc1nc(Nc2ccc3c(c2)CCC(=O)N3)ncc1C(F)(F)F` the figure was above 2 µM; with `O=C1CCc2cc(Nc3ncc(C(F)(F)F)c(NCCCNC(=O)C4CC4)n3)ccc2N1`, below 0.2 µM. Take `COc1cc(Nc2ncc(Br)c(-n3nnc4ccccc43)n2)cc(OC)c1OC`: the IC50 was above 2 µM. With `CNC(=O)Cc1ccccc1Oc1nc(Nc2cc(OC)c(OC)c(OC)c2)ncc1Br` the figure was above 2 µM; with `COc1cc(Nc2ncc(Br)c(Oc3ccccc3[S+](C)[O-])n2)cc(OC)c1OC` (configuration not stated), above 2 µM.

Consider `COc1cc(Nc2ncc(Br)c(Oc3ccccc3NC(=O)C(C)(C)C)n2)cc(OC)c1OC`, for which the IC50 was above 2 µM. Consider `COc1cc(Nc2ncc(C(F)(F)F)c(Oc3ccccc3N)n2)cc(OC)c1OC`, for which the concentration for half-maximal inhibition (IC50) was below 0.2 µM. Under `COc1cc(Nc2ncc(Br)c(Oc3cccc4c3N(C(C)=O)CCC4)n2)cc(OC)c1OC` stands above 2 µM; under `COc1ccc(Nc2ncc(C(F)(F)F)c(NC3CC3)n2)cc1OC`, below 0.2 µM.

Regarding `CC(=O)Nc1ccccc1Oc1nc(Nc2ccc3c(c2)OCO3)ncc1Br`, the IC50 was above 2 µM. `COCC(C)(CN(C)C)Nc1nc(Nc2ccc3c(c2)CCC(=O)N3)ncc1C(F)(F)F` (configuration not stated): the IC50 is above 2 µM. Under `O=C(C1CC1)N1CCc2cc(Nc3ncc(C(F)(F)F)c(NC4CC4)n3)ccc2C1` stands below 0.2 µM; under `COc1cc(Nc2ncc(Br)c(Oc3ccccc3O)n2)cc(OC)c1OC`, above 2 µM; under `COc1cc(Nc2ncc(Cl)c(Nc3ccccc3CO)n2)cc(OC)c1OC`, above 2 µM.

For `COc1cccc(Nc2nc(Nc3ccc(OC(F)(F)F)c(Cl)c3)ncc2C(F)(F)F)c1`, the IC50 is above 2 µM. Under `OCc1ccccc1Nc1nc(Nc2cc(F)c(F)c(F)c2)ncc1Br` stands above 2 µM. Under `O=c1[nH][nH]c(=O)c2cc(Nc3ncc(C(F)(F)F)c(NC4CC4)n3)ccc12` stands below 0.2 µM; under `COc1cc(Nc2ncc(Br)c(Oc3ccccc3CNC(C)=O)n2)cc(OC)c1OC`, above 2 µM; under `O=C1CCc2cc(Nc3ncc(C(F)(F)F)c(Nc4ccc5c(c4)OCO5)n3)ccc2N1`, below 0.2 µM.
